In one series the test system is AML, de novo. The series can be described thus: Cytotoxicity assay (Alamar blue), patient leukemia sample. The following applies: Homo sapiens. The format is cell-based. As for the experimental part: (§1) FIGS. 16A-16B. Granaticin A and Granaticin B inhibit multiple tumor types: The indicated cell lines and primary patient samples were tested against the compounds listed in standard cytotoxicity assays (12 point dose response using Alamar blue reduction as an indicator of cell viability). Assays were done in triplicate and IC50 determinations were run in 12-point serial dilutions from […] to 5 nM. […] These include ras and EGFR gatekeeper mutation containing cell lines in addition to p53 mutant cell lines and other known chemotherapy resistant cell lines. Specifically, this included multi-drug resistance phenotype (MDR-overexpressing) cell lines from multiple hematologic and solid tumor cell lines. Table 1 highlights a series of primary patient leukemia samples-both acute and chronic and treatment naïve and refractory tested against granaticins A and B and Derivatives 1 and 2 (see Examples).
(§2) Table 1 highlights a series of primary patient leukemia samples-both acute and chronic and treatment naïve and refractory and the effect of granaticin A, granaticin B, derivative 1, and derivative 2 to inhibit cellular proliferation. […] The two starred samples represent serial samples taken from the same patients after they received 2-3 cycles of additional high dose salvage chemotherapy and indicate that although refractory to salvage chemotherapy, the Cdc7 pathway remains a potentially efficacious target as the sensitivity to these compounds remains unchanged. Importantly, each patient sample was resistant to the prior therapy received using this assay.

The test system of series [1] is AML, primary refractory 1. Described as above. To be noted: Homo sapiens. It counts as cell-based. As for the experimental part:
as §1, §2

In the next series the test system is CML, untreated. Described as above. It counts as cell-based. To be noted: Homo sapiens. As for the experimental part:
as §1, §2

The test system of a further series is AML, primary refractory. The series is described as above. The format is cell-based. To be noted: Homo sapiens. The method, then:
as §1, §2

For another series, the system named is AML, relapsed s/p HSCT. The description is as above. The following applies: Homo sapiens. The format is cell-based. The method, then:
as §1, §2

A further series concerns AMMoL. The series is described as above. The following applies: Homo sapiens. It counts as cell-based. The method, then: as §1, §2
For a further series, the system named is ALL, Ph+. The series is described as above. It counts as cell-based. To be noted: Homo sapiens. As for the experimental part:
as §1, §2

Series [2] deals with CLL, untreated, chromosome 17 p del. Described as above. The format is cell-based. The following applies: Homo sapiens. The method, then:
as §1, §2

Series [3] relates to Biphenotypic acute leukemia 1*. Described as above. To be noted: Homo sapiens, second sample from the same patient following high-dose chemotherapy. The format is cell-based. The method, then:
as §1, §2

Series [4] relates to AML, primary refractory 1*. The description is as above. It counts as cell-based. To be noted: Homo sapiens, second sample from the same patient following high-dose chemotherapy. The method, then:
as §1, §2

Another series has as its system AML, relapsed. The series is described as above. The format is cell-based. To be noted: Homo sapiens. The method, then:
as §1, §2

Series [5] deals with Biphenotypic acute leukemia 1. Described as above. The following applies: Homo sapiens. The format is cell-based. The method, then: as §1, §2
The test system of another series is PhALL3.1. Described as above. The following applies: for IC50: Homo sapiens, PhALL3.1. The format is cell-based, human. As for the experimental part:
as §1, §2

In the next series the test system is HeLa S3 cells. The series can be described thus: Double thymidine block and release, FACS and morphology. It counts as cell-based, human. The following applies: for morphologic appearance: 15 hours release from double thymidine block; for cell cycle progression by FACS: cells synchronized at the G1/S transition and released into compound. As for the experimental part: FIG. 9. […] Synchronized cells (time zero) were released into media containing granaticin A for the indicated times and standard FACS analysis performed looking at DNA content.
FIG. 11. Cell cycle arrest in Hela S3 cells: Morphologic appearance of control (DMSO), granaticin A, and granaticin B treated HeLa S3 cells following 15 hours release from double thymidine block. […] The corresponding FACS profiles are shown.

Series [6] relates to RPE (retinal pigment epithelial cells). The series can be described thus: FACS and caspase-3 assay in normal diploid cells. The format is cell-based. As for the experimental part: (§3) FIGS. 23A-23C. Granaticin A and B are not cytotoxic to normal diploid cells: FIGS. 23A-23B: Granaticin B exposure is not cytotoxic to normal diploid cells. Either HeLa or RPE (retinal pigment epithelial cells, a normal human diploid cell line) cells were incubated in carrier control (DMSO) or granaticin B (1 microM) for 24 hours and samples were subjected to standard FACS analysis with the x-axis indicating DNA content (FIG. 23A). […] FIG. 23C: Granaticin A exposure is not cytotoxic to normal diploid cells. Either HeLa or RPE (retinal pigment epithelial cells, a normal diploid cell line) cells were incubated in carrier control (DMSO) or granaticin A for 24 hours and samples were subjected to standard FACS analysis with FL2 indicating DNA content.

Another series addresses human recombinant Cdc7 (Homo sapiens, UniProt O00311). In words: In vitro kinase reaction, Mcm2 phosphorylation by Cdc7. The format is biochemical. The following applies: radioactive ATP, SDS-PAGE, autoradiography. The method, then:
FIG. 8. Mcm2 phosphorylation by Cdc7: Phosphorylated forms of Mcm2 migrate […] in SDS-PAGE gels. Using highly purified human recombinant Cdc7 and Mcm2, standard in vitro kinase reactions were performed in the presence of radioactive ATP and products were separated on SDS-PAGE gels, stained with silver, and autoradiography was performed to detect phosphorylated forms of Mcm2.

For a further series, the system named is HeLa. The series can be described thus: FACS and caspase-3 assay in HeLa cells. The following applies: for cell cycle profile: 24 hours (granaticin B 1 microM). The format is cell-based, human. The method, then: as §3
In a further series the test system is Mcm2 phosphorylation. The series can be described thus: Western blotting of Mcm2 after S phase release. It counts as cell-based, human. The following applies: PhALL3.1 cells, as early as 2 hours post release. An excerpt: FIG. 7. Granaticin A Inhibits Mcm2 phosphorylation: Following synchronization in S phase and release, PhALL3.1 cells from the experiments of FIG. 5 and FIG. 6 were collected at the indicated times post release into either control (DMSO) or granaticin A and extracts were subjected to Western blotting to detect total Mcm2 protein.
(In general: A western blot detects proteins with antibodies after separation by electrophoresis.)

The subject of another series is OVCAR3 cells. In words: OVCAR3 intraperitoneal ovarian cancer model in SCID-Beige mice. The format is in vivo, mouse. To be noted: 3 mg/kg intraperitoneally daily days 7-14; imaging on day 42. As for the experimental part: FIG. 22A-22C. Granaticin B is Effective Against Multiple Solid Tumors: granaticin B is efficacious against mouse models of melanoma (FIG. 22A), non-small cell lung cancer (FIG. 22B), and ovarian cancer (FIG. 22C). For the ovarian cancer experiments, SCID-Beige mice were injected with 5 million OVCAR3 cells that had been transduced with a GFP-firefly luciferase expressing plasmid (Frattini, M. G. and Brentjens, R. J., unpublished data). These cells were then injected intraperitoneally into 4 cohorts of mice on Day 1. From days 7-14 the mice were injected daily with the indicated concentrations of granaticin B in the intraperitoneal space. […] Nude mice were treated with 2.5 mg/kg/day granaticin B in a continuous fashion using osmotic diffusion pumps. Sections of the treated xenografts are shown after euthanasia at day 28 and H&E staining.

The mark [7] stands for this setting: relapsed (first of two such lines, r11).
[8] abbreviates: relapsed (second of two such lines, r12).

The source of these data is US20210283099A1, “CDC7 KINASE INHIBITORS AND USES THEREOF” (SLOAN-KETTERING INSTITUTE FOR CANCER RESEARCH, priority 2010, published 2021).

In general, IC50 refers to the concentration that inhibits the measured activity by half. The low end stands for greater potency, the high end for weaker potency.

Like-named read-outs stand apart in the source and are kept apart here.

human recombinant Cdc7, sequence (O00311 whole entry): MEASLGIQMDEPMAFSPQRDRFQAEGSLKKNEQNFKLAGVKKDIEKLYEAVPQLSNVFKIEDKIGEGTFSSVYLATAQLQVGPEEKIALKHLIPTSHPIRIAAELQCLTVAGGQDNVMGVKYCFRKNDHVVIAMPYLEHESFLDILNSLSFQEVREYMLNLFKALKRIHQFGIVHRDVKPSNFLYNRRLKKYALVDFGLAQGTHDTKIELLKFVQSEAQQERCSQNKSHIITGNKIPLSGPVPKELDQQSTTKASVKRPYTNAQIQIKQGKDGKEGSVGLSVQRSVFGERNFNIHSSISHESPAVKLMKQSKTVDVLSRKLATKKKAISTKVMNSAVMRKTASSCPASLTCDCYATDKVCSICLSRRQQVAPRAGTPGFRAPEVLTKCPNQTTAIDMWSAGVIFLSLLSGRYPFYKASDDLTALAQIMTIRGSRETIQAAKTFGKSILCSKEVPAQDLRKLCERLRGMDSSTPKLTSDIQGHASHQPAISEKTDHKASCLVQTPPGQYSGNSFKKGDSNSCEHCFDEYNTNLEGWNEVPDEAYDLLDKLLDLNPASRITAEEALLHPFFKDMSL
human recombinant Cdc7, sequence (Q9UBU7 whole entry partner): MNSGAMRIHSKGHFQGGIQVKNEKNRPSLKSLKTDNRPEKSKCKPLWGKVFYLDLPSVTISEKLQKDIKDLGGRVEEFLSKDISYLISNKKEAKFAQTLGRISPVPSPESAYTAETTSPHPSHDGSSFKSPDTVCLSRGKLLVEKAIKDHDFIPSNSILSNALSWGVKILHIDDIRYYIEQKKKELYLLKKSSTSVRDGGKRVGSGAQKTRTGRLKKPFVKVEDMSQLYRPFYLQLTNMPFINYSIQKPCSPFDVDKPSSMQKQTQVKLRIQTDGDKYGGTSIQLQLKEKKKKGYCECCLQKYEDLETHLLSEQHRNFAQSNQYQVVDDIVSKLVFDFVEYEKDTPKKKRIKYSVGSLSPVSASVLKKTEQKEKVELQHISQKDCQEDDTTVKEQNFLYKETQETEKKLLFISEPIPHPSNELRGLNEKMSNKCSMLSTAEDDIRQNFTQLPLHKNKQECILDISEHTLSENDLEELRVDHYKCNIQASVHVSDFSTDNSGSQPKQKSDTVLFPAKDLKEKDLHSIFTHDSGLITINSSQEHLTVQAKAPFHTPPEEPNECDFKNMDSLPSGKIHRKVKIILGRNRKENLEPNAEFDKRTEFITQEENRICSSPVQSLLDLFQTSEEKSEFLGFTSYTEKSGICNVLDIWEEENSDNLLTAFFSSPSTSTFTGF

For `CC1OC2CC(O)C1(O)c1c(O)c3c(c(O)c12)C(=O)C1=C(C3=O)[C@H](C)O[C@H]2CC(=O)O[C@@H]12` (stereo partly drawn) [Granaticin A, granaticin A], the IC50 amounted to 0.72 µM in the series with AML, de novo; 0.75 µM in series [1]; 0.26 µM with CML, untreated; 0.77 µM in the series with AML, primary refractory; 1.88 µM in the series with AML, relapsed s/p HSCT; 0.99 µM in the series with AMMoL. Also, the IC50 is 0.56 µM in the series with ALL, Ph+; 0.46 µM in series [2]; 0.54 µM in [3]; 0.63 µM in [4]; 1.2 µM in the series with AML, relapsed (setting [7]); 0.21 µM in the series on AML, relapsed (setting [8]). The values for the IC50 (in series [5]; with PhALL3.1) were 0.3 µM and 0.14 µM, respectively. For the same molecule, the “activity in the cell based assays” value in the series on PhALL3.1 (PhALL3.1 cell line) is listed as “very active”. Also, the morphologic appearance result in the series with HeLa S3 cells is “arrested with flattened morphology and peri-nuclear vacuolization”. For the same molecule, the “cell cycle progression by FACS” value in the series on HeLa S3 cells is “S phase progression is also blocked”. In addition, the cell cycle profile result is listed as “unaffected” in series [6] and “apoptotic cell death” in the series with HeLa. Further, at human recombinant Cdc7, the “Cdc7 kinase activity on Mcm2” value was “small molecule inhibitor of Cdc7 kinase activity”. Besides, the “Mcm2 phosphorylation in cells” value with Mcm2 phosphorylation is listed as “inhibition of Mcm2 phosphorylation”.
As for `CC1OC2CC(O[C@H]3CC[C@H](O)[C@H](C)O3)C1(O)c1c(O)c3c(c(O)c12)C(=O)C1=C(C3=O)[C@H](C)O[C@H]2CC(=O)O[C@@H]12` (stereo partly drawn) [Granaticin B, granaticin B], the IC50 with AML, de novo amounted to 0.18 µM; in [1], 0.11 µM; in the series with CML, untreated, 0.08 µM; with AML, primary refractory, 0.14 µM; in the series on AML, relapsed s/p HSCT, 0.62 µM; in the series with AMMoL it was 0.49 µM. The IC50 turned out to be 0.19 µM with ALL, Ph+; 0.31 µM in [2]; 0.1 µM in series [3]; 0.1 µM in series [4]; 0.1 µM in the series on AML, relapsed (setting [7]); 0.05 µM in the series on AML, relapsed (setting [8]). Moreover, the figures for the IC50 (in series [5]; in the series on PhALL3.1) were 0.04 µM and 0.03 µM, respectively. For the same molecule, in the series with HeLa S3 cells, the morphologic appearance entry was “nuclear blebbing and cell death”. Further, in the series on HeLa S3 cells, the “cell cycle progression by FACS” value is “Induces Cell Cycle Arrest”. In addition, the “disease by luciferase imaging” value in the series on OVCAR3 cells was “essentially no disease”. The caspase-3 activation entry is given as “does not result in caspase-3 activation” in [6] (RPE cells, 1 microM) and “only activated in HeLa cells” with HeLa (1 microM). Also, the cell cycle profile result in series [6] (RPE cells, 24 hours (granaticin B 1 microM)) is reported as “essentially unaffected”; in the series with HeLa, “apoptotic cell death”.
